Measurements published in patent publication US5236942A, “5-aryl-4-alkyl-3H-1,2,4-triazole-3-thiones useful in the treatment of Altzheimer's dementia” (Merrell Dow Pharmaceuticals Inc., priority 1992, dated 1993).
Where two headings read alike, the source gives them in different places. One block for each compound: values may come before it.

Experiments:
memory in mice = conditions: versus normal vehicle-treated control mice; cited from earlier work
[1] = system: hippocampal high affinity choline uptake; conditions: mice; cited from earlier work
[2] = system: time dependent memory deficit in rats; test: Working memory in the T-maze, rats with 0- or 60-second delay; format: in vivo, Male Sprague-Dawley rats; conditions: for Number of errors (5 = chance response), 0-Second Delay / Number of errors (5 = chance response), 60-Second Delay: ten trials, mean ± SEM, n = 12
Procedure: The activity of these compounds in enhancing memory can also be confirmed in experiments that study working memory in rats by evaluating the acquisition of alternation behavior in a T-maze. The maze used has the shape of a T with alleys 16 cm wide and side walls 20 cm high, the main arm being 65 cm long and the two side arms 45 cm long. Male Sprague-Dawleyrats are maintained on a 23 hour food deprivation schedule and are tested each day (Monday-Friday), each trial in the maze consisting of two runs. The rat starts at the end of the main arm and runs to the choice point where it must turn either left or right. The first is a forced run where one arm of the T-maze has been blocked off at the choice point. The remaining arm has a bowl of sweetened condensed milk as reward. On the second run the rat has a free choice of arms and learns by experience that food reward is to be found down the arm not visited on the first run. Trials are run at 30-second intervals, and the arm choice on the forced run is varied at random between trials. Arm entry is defined by the rat's placing all four paws in the arm, and incorrect selection of the arm is scored as an error. […] Impairment of performance is achieved for testing the compound of this invention in two different ways. […] The table compares the number of incorrect responses by rats tested in trials wherein there is no delay after the forced run and trials wherein there is a 60-second delay. […] For this test, the number of errors expected by random response, i.e., the selection of the correct arm 50% of the time, is 5.

hippocampal slice = test: Electrophysiological assay of long term potentiation of the hippocampal slice
Excerpt: (§1) Experiments also compared 5-(3-fluorophenyl)-2,4-dimethyl-3H-1,2,4-triazole-3-thione, a compound of formula I, with a series of β-carbolines in an electrophysiological assay system involving long term potentiation of the hippocampal slice.

[3] = system: carrier that mediates choline transport ([3H] hemicholinium-3 binding in rat brain membranes); test: [3H] hemicholinium-3 binding in rat brain membranes (cortex) after i.p. dosing of rats; set-up: species or system Male Sprague-Dawley rats; conditions: for Bmax ± SEM of [3H] hemicholinium-3 binding / Kd: rat brain cortex; for Kd: Kd of the radioligand, read-out: Kd ± SEM of [3H] hemicholinium-3 binding
Excerpt: Another measure of cholinergic activity is the binding of the radioligand [^3 H] hemicholinium-3, ([^3 H] HC-3) which labels the carrier that mediates choline transport. […] Therefore, the stimulation of [^3 H] HC-3 binding in vitro after treatment with drugs in vivo is also a marker for increased cholinergic activity, predictive of enhanced cognition in treated animals.
The pharmacological properties of these compounds as enhancers of memory and cognition and their relative potencies may be measured through their effect on neuro-transmitters in the brain. Since drugs that block GABA inhibition in the cholinergic neurons of the basal forebrain nuclei will stimulate cholinergic firing, thus stimulating memory, the capacity of the drugs to enhance cognition can be assessed by measuring the increase in cholinergic firing rate. The increase in cholinergic firing rate is measured indirectly by measuring choline uptake or [^3 H] hemicholinium-3 binding in brain cells taken from treated animals.
To test for [^3 H] hemicholinium-3 binding in brain cells from the brain cortex, drugs were dissolved in saline by sonication. Male Sprague-Dawley rats were dosed i.p. and sacrificed by decapitation 60 min after injection. The brains were removed and dissected, and tissue was homogenized in 20 volumes of ice-cold buffer and stored frozen until assayed. Binding was measured by incubating the tissue with varying concentrations of [^3 H]hemicholinium-3 in an isotonic Tris buffer (pH 7.4) for 60 min at room temperature. The incubation was terminated by rapid filtration through Whatman GF/B filters. After drying, the filters were placed in scintillation cocktail and radioactivity was determined using a Beckman scintillation counter. In two experiments, the values for the Kd and Bmax were determined by nonlinear curve-fitting and the average values for samples of 3 or more animals reported.

[4] = system: scopolamine-induced memory deficit in rats; test: Working memory in the T-maze, rats treated with scopolamine; format: in vivo, Male Sprague-Dawley rats; conditions: for Number of errors (12 = chance response), T-maze: 24 trials, mean ± SEM, n = 12
Procedure: The maze used has the shape of a T with alleys 16 cm wide and side walls 20 cm high, the main arm being 65 cm long and the two side arms 45 cm long. Male Sprague-Dawleyrats are maintained on a 23 hour food deprivation schedule and are tested each day (Monday-Friday), each trial in the maze consisting of two runs. The rat starts at the end of the main arm and runs to the choice point where it must turn either left or right. The first is a forced run where one arm of the T-maze has been blocked off at the choice point. The remaining arm has a bowl of sweetened condensed milk as reward. On the second run the rat has a free choice of arms and learns by experience that food reward is to be found down the arm not visited on the first run. Trials are run at 30-second intervals, and the arm choice on the forced run is varied at random between trials. Arm entry is defined by the rat's placing all four paws in the arm, and incorrect selection of the arm is scored as an error. Noncompleted trials, where the rat has not made a choice within 3 minutes, are included as errors.5-(3-Fluorophenyl)-2,4-dimethyl-3H-1,2,4-triazole-3-thione is administered one hour before the first trial of each session. Impairment of performance is achieved for testing the compound of this invention in two different ways.
In the trials summarized in Table 2, the amnestic muscarinic antagonist scopolamine is administered subcutaneously at a dose of 0.15 mg/kg 15-minutes before the first trial, and there is a delay of 5-10 seconds after the forced run before the second run of the trial. […] All values are expressed as the mean number of errors per block of twenty-four trials with groups of 12 animals±the standard error of the mean. For this test, the number of errors expected by random response, i.e., the selection of the correct arm 50% of the time, is 12.

benzodiazepine receptor = test: Inverse agonism at the benzodiazepine receptor, in the hippocampal slice tests; format: cell-based; conditions: in these tests
Excerpt: as §1

[5] = system: high affinity choline uptake (HACU); conditions: cited from earlier work; for effect on HACU: acute administration i.p.; for effect on cortical or hippocampal HACU: after in vivo administration
[6] = 1 mg/kg i.p., n = 4, 60 min after injection
[7] = 2.5 mg/kg i.p., n = 4, 60 min after injection
[8] = 25 mg/kg i.p., n = 3, 60 min after injection
[9] = 25 mg/kg i.p., n = 3, vs saline (Bmax 11.9)
[10] = 5 mg/kg i.p., n = 7, 60 min after injection
[11] = higher concentrations / high doses

Structure (SMILES): CC(=C(CCOC(=O)C(C)C)SSC(CCOC(=O)C(C)C)=C(C)N(C=O)Cc1cnc(C)nc1N)N(C=O)Cc1cnc(C)nc1N (stereo in doubt) [sulbutiamine]
performance in operant conditioning memory task (memory in mice): performance was enhanced | hippocampal high affinity choline uptake [1]: increased

Bmax ± SEM of [3H] hemicholinium-3 binding [3, 6]: 20.3 ± 1.2 fmol/mg Protein | % Increase in Bmax ([3]; 1 mg/kg i.p., n = 4, vs saline (Bmax 9.7)): 109% | Bmax ± SEM of [3H] hemicholinium-3 binding [3, 7]: 15.2 ± 3.0 fmol/mg Protein | % Increase in Bmax ([3]; 2.5 mg/kg i.p., n = 4, vs saline (Bmax 9.7)): 57% | Kd [3, 6]: 3.8 ± 0.6 nM | Kd [3, 7]: 6.5 ± 1.8 nM
Structure (SMILES): Cn1nc(-c2cccc(F)c2)n(C)c1=S [5-(3-Fluorophenyl)-2,4-dimethyl-3H-1,2,4-triazole-3-thione]
Number of errors (5 = chance response), 0-Second Delay ([2]; 1 mg/kg): 0.50 ± 0.26 | Number of errors (5 = chance response), 60-Second Delay ([2]; 1 mg/kg, * p < 0.05 vs 0 seconds delay): 4.42 ± 0.47 | Number of errors (5 = chance response), 0-Second Delay ([2]; 5 mg/kg): 0.67 ± 0.33 | Number of errors (5 = chance response), 60-Second Delay ([2]; 5 mg/kg, * p < 0.05 vs 0 seconds delay): 2.33 ± 0.50 | Number of errors (5 = chance response), 0-Second Delay ([2]; 10 mg/kg): 0.58 ± 0.19 | Number of errors (5 = chance response), 60-Second Delay ([2]; 10 mg/kg): 1.75 ± 0.43 | reversal of time dependent deficit in the T-maze ([2]; 60-second delay): effectively reverses the time dependent deficit | epileptiform activity in the hippocampal slice (hippocampal slice): did not produce the epileptiform activity | Number of errors (12 = chance response), T-maze ([4]; 1 mg/kg with scopolamine 0.15 mg/kg, * p < 0.05 vs saline): 5.0 ± 0.26 | reversal of scopolamine-induced memory deficit in the T-maze ([4]; 5 mg/kg): reverses the scopolamine-induced memory deficit | Number of errors (12 = chance response), T-maze ([4]; 5 mg/kg with scopolamine 0.15 mg/kg, + p < 0.05 vs scopolamine): 4.0 ± 0.8

Bmax ± SEM of [3H] hemicholinium-3 binding [3, 8]: 16.0 ± 3.0 fmol/mg Protein | % Increase in Bmax [3, 9]: 35% | Kd [3, 8]: 1.5 ± 0.1 nM
Structure (SMILES): Cn1nc(-c2cccc(C(F)(F)F)c2)n(C)c1=S [5-(3-Trifluoromethylphenyl)-2,4-dimethyl-3H-1,2,4-triazole-3-thione]

Bmax ± SEM of [3H] hemicholinium-3 binding [3, 8]: 18.7 ± 3.2 fmol/mg Protein | % Increase in Bmax [3, 9]: 57% | Kd [3, 8]: 2.14 ± 0.7 nM
Structure (SMILES): Cn1c(-c2ccccc2)n[nH]c1=S [5-Phenyl-4-methyl-3H-1,2,4-triazole-3-thione]

Bmax ± SEM of [3H] hemicholinium-3 binding [3, 10]: 19.0 ± 3.4 fmol/mg Protein | % Increase in Bmax ([3]; 5 mg/kg i.p., n = 7, vs saline (Bmax 11.9)): 60% | Kd [3, 10]: 2.8 ± 0.5 nM
Structure (SMILES): Cn1nc(-c2ccccc2)n(C)c1=S [5-phenyl-2,4-dimethyl-3H-1,2,4-triazole-3-thione]

epileptiform activity in the hippocampal slice (hippocampal slice): produced epileptiform activity | inverse agonist character (benzodiazepine receptor): partial inverse agonist
Structure (SMILES): CNC(=O)c1cc2c(cn1)[nH]c1ccccc12 [N-methyl-β-carboline-3-carboxamide]

Structure (SMILES): CN1[C@@H]2C[C@@H](OC(=O)[C@H](CO)c3ccccc3)C[C@H]1[C@@H]1O[C@@H]12 [Scopolamine, reference compound]
Number of errors (12 = chance response), T-maze ([4]; scopolamine 0.15 mg/kg s.c. alone, ** p < 0.01 vs saline): 6.9 ± 0.7

Structure (SMILES): CN(C)CCC=C1c2ccccc2CCc2ccccc21 [amitriptyline]
effect on HACU [5]: no effect

Structure (SMILES): CNCCCN1c2ccccc2CCc2ccccc21 [desipramine]
effect on HACU [5]: no effect

Structure (SMILES): CCOC(=O)c1cc2c(cn1)[nH]c1ccccc12 [ethyl β-carboline-3-carboxylate]
epileptiform activity in the hippocampal slice (hippocampal slice; [11]): produced epileptiform activity | inverse agonist character (benzodiazepine receptor): full inverse agonists

Structure (SMILES): CN(C)CCCN1c2ccccc2CCc2ccccc21 [imipramine]
effect on HACU [5]: no effect

Structure (SMILES): CCc1c(C(=O)OC)ncc2[nH]c3cc(OC)c(OC)cc3c12 [methyl 6,7-dimethoxy-4-ethyl-β-carboline-3-carboxylate]
epileptiform activity in the hippocampal slice (hippocampal slice; [11]): produced epileptiform activity | inverse agonist character (benzodiazepine receptor): full inverse agonists

Structure (SMILES): COC(=O)c1cc2c(cn1)[nH]c1ccccc12 [methyl β-carboline-3-carboxylate]
epileptiform activity in the hippocampal slice (hippocampal slice; [11]): produced epileptiform activity | inverse agonist character (benzodiazepine receptor): full inverse agonists

Structure (SMILES): Cc1cc(-c2ccccc2)nnc1NCCN1CCOCC1 [minaprine]
effect on striatal, cortical and hippocampal HACU ([5]; 30 mg/kg acute dose): weak effect

Structure (SMILES): NC(=O)CN1CC(O)CC1=O (stereo not drawn) [oxiracetam]
effect on cortical or hippocampal HACU [5]: stimulate cortical or hippocampal HACU

Structure (SMILES): CC(C)(CO)[C@@H](O)C(=O)NCCCC(=O)O [pantoyl-GABA]
effect on cortical or hippocampal HACU [5]: stimulate cortical or hippocampal HACU

Structure (SMILES): CC(C)N(CCNC(=O)CN1CCCC1=O)C(C)C [pramiracetam]
effect on cortical or hippocampal HACU [5]: stimulate cortical or hippocampal HACU

Structure (SMILES): CCOc1ccccc1OCC1CNCCO1 (stereo not drawn) [viloxazine]
effect on HACU [5]: no effect
